The record followed here is ChEMBL document CHEMBL5137093, “Improving Drug Delivery While Tailoring Prodrug Activation to Modulate Cmax and Cmin by Optimization of (Carbonyl)oxyalkyl Linker-Based Prodrugs of Atazanavir” (J Med Chem, 2022).

Series [1] can be described thus: Relative Cmax ratio of Atazanavir in Sprague-Dawley rat at 3 ml/kg,po measured upto 24 hrs by UPLC-MS/MS analysis. The conditions noted are these: in vivo. The class given is ADME.
Series [2] in a line: Aqueous stability of the compound in phosphate buffer at pH 6.5 assessed as compound half life measured after 24 hrs by UPLC analysis. In kind it is physicochemical. The conditions noted are these: for t1/2: buffer, pH 6.5, 24 h, 24 h; for half-life: phosphate buffer, pH 6.5.
Series [3] in a line: Cmax in Sprague-Dawley rat at 3 ml/kg,po measured upto 24 hrs by UPLC-MS/MS analysis. Further details: dose 3 ml/kg, time < 24 hrs, route po. The conditions noted are these: in vivo. The class given is ADME.
Series [4] is described as follows: Tmax in Sprague-Dawley rat at 3 ml/kg,po measured upto 24 hrs by UPLC-MS/MS analysis. In kind it is ADME. The conditions noted are these: in vivo.
Series [5] in a line: Ratio of Cmax/Cmin of Atazanavir in Sprague-Dawley rat at 3 ml/kg,po measured after 24 hrs by UPLC-MS/MS analysis. In kind it is ADME. The conditions noted are these: in vivo.
Series [6] is described as follows: Aqueous solubility of compound at pH 4 by UPLC analysis. In kind it is physicochemical.
A short description of series [7]: Aqueous solubility of compound at pH 1 by UPLC analysis. The class given is physicochemical.
Series [8] is described as follows: AUClast in Sprague-Dawley rat at 3 ml/kg,po measured upto 24 hrs by UPLC-MS/MS analysis. The conditions noted are these: in vivo; for AUClast: 24 h; for AUC(0-t) at 24 h: Sprague-Dawley, 3 ml/kg. The class given is ADME. Further details: time < 24 hrs, dose 3 ml/kg, route po.
The nature of series [9]: Aqueous stability of the compound in HCL at pH 1 assessed as compound half life measured after 24 hrs by UPLC analysis. The class given is physicochemical. The conditions noted are these: for t1/2: buffer, pH 1, 24 h; for half-life: aqueous HCl, pH 1.
A short description of series [10]: Aqueous stability of the compound in acetate buffer at pH 4 assessed as compound half life measured after 24 hrs by UPLC analysis. The class given is physicochemical. The conditions noted are these: for t1/2: buffer, pH 4, 24 h, 24 h; for half-life: acetate buffer, pH 4.
Series [11] is described as follows: Fold ratio of total AUC of Atazanavir in Sprague-Dawley rat at 3 ml/kg,po measured upto 24 hrs by UPLC-MS/MS analysis. The class given is ADME. The conditions noted are these: in vivo.
Series [12] is described as follows: Ratio of AUC of Atazanavir in Sprague-Dawley rat at 3 ml/kg,po measured upto 24 hrs by UPLC-MS/MS analysis. The class given is ADME. The conditions noted are these: in vivo.
Series [13] in a line: Relative AUC ratio of Atazanavir in Sprague-Dawley rat at 3 ml/kg,po measured upto 24 hrs by UPLC-MS/MS analysis. The class given is ADME. The conditions noted are these: in vivo.
A short description of series [14]: Aqueous solubility of compound at pH 6.5 by UPLC analysis. The class given is physicochemical. The conditions noted are these: buffer.
The mark [15] stands for this setting: aqueous medium, read-out: solubility.

Regarding `COC(=O)N[C@H](C(=O)N[C@@H](Cc1ccccc1)[C@H](CN(Cc1ccc(-c2ccccn2)cc1)NC(=O)[C@@H](NC(=O)OC)C(C)(C)C)OC(=O)OC(OC(=O)[C@H](C)N)C(C)C)C(C)(C)C` (stereo in doubt; 3q), the Ratio in series [1] is reported as 2.3; in series [5] it was 1505; in series [11], 7.3; in series [12], 3.09; in series [13], 1.8. Further, the t1/2 came to 2.7 h in [2], 125.4 h in [9] (24 h) and 30.4 h in [10]. Moreover, in series [3] (24 h), the maximum concentration (Cmax) was found to be 1900 nM. In addition, the Tmax in [4] (po, 24 h) worked out at 0.3 h. For the same compound, the figures for the solubility in series [6] (buffer) and in series [7] (buffer) were over 1800 µg/mL and over 1700 µg/mL, respectively. The compound further registered an AUClast in [8] of 2.129 µM·h.

Take `COC(=O)N[C@H](C(=O)N[C@@H](Cc1ccccc1)[C@H](CN(Cc1ccc(-c2ccccn2)cc1)NC(=O)[C@@H](NC(=O)OC)C(C)(C)C)OC(=O)OC(OC(=O)[C@@H](N)Cc1ccccc1)C(C)C)C(C)(C)C` (stereo in doubt; 3w): the Ratio in [1] was 7.8; in series [11], 3.8; in series [12], 0.01; in series [13] it was 3.7. For the same compound, the t1/2 in series [2] amounted to 12.7 h; in [9], 334.3 h; in series [10], 158.4 h. This compound displayed a peak concentration (Cmax) in series [3] (Sprague-Dawley, 3 ml/kg) of 50 nM. In addition, in series [4] (Sprague-Dawley, read-out: Tmax), the Tmax is 0.3 h. In addition, the solubility in [14] is over 890 µg/mL; in series [6] (buffer), over 1630 µg/mL; in series [7] (buffer) it was over 1670 µg/mL. The AUC(0-t) at 24 h in [8] came out at 0.018 µM·h.

On to `COC(=O)N[C@H](C(=O)N[C@@H](Cc1ccccc1)[C@H](CN(Cc1ccc(-c2ccccn2)cc1)NC(=O)[C@@H](NC(=O)OC)C(C)(C)C)OC(=O)OC(OC(=O)[C@H](N)C(C)C)C(C)C)C(C)(C)C` (stereo in doubt; 5i), for which the Ratio in [1] came to 5.3; in [5], 389.4; in [11], 5.6; in series [12], 0.01; in [13], 5.6. The figures for the half-life in series [2], in series [9] and in [10] were 16.3 h, over 500 h and 376 h, respectively. The highest level in [3] (24 h) (Cmax) was 19 nM. The time of peak concentration (Tmax) in series [4] (Sprague-Dawley, read-out: Tmax) worked out at 0.4 h. Further, the figures for the solubility in series [6] (setting [15]) and in series [7] (setting [15]) were over 1800 µg/mL and over 1300 µg/mL, respectively. The AUClast in series [8] was found to be 0.015 µM·h.

`COC(=O)N[C@H](C(=O)N[C@@H](Cc1ccccc1)[C@H](CN(Cc1ccc(-c2ccccn2)cc1)NC(=O)[C@@H](NC(=O)OC)C(C)(C)C)OC(=O)OC(OC(=O)[C@@H](N)Cc1ccccc1)C(C)C)C(C)(C)C` (stereo in doubt; 3v): the Ratio was found to be 0.5 in series [1], 0.3 in series [11], 0 in [12] and 0.3 in series [13]. The half-life was 10.7 h in series [2], 334 h in series [9] and 100 h in series [10]. In addition, the solubility is under 1 µg/mL in series [14], over 840 µg/mL in [6] (setting [15]) and over 1520 µg/mL in series [7] (setting [15]).

As for `COC(=O)N[C@H](C(=O)N[C@@H](Cc1ccccc1)[C@H](CN(Cc1ccc(-c2ccccn2)cc1)NC(=O)[C@@H](NC(=O)OC)C(C)(C)C)OC(=O)OC(OC(=O)[C@@H](N)CC(C)C)C(C)C)C(C)(C)C` (stereo in doubt; 3t), the Ratio was 2.1 in series [1]; 304.4 in [5]; 1.3 in series [11]; 0 in series [12]; 1.3 in [13]. The results for the t1/2 in [2], in [9] (24 h) and in [10] were 12 h, over 500 h and 136.8 h, respectively. Also, the solubility was over 1100 µg/mL in series [6] (setting [15]) and over 1400 µg/mL in [7] (setting [15]).

On to `COC(=O)N[C@H](C(=O)N[C@@H](Cc1ccccc1)[C@H](CN(Cc1ccc(-c2ccccn2)cc1)NC(=O)[C@@H](NC(=O)OC)C(C)(C)C)OC(=O)OC(OC(=O)CCN)C(C)C)C(C)(C)C` (stereo in doubt; 3z), for which the Ratio is 6.9 in series [1]; 1309.3 in [5]; 8.7 in [11]; 0 in series [12]; 8.7 in [13]. Also, the half-life in [2] is 10.1 h; in [9], over 500 h; in series [10], 334 h. In addition, the peak level in series [3] (Sprague-Dawley, 3 ml/kg) (Cmax) was 6 nM. Besides, in [4] (Sprague-Dawley, read-out: Tmax), the Tmax came to 1.3 h. For the same compound, the solubility is over 1500 µg/mL in series [6] (setting [15]) and over 1700 µg/mL in [7] (setting [15]). Besides, the exposure AUC(0-t) at 24 h in series [8] was found to be 0.007 µM·h.

With `CN[C@H](C(=O)OC(OC(=O)O[C@@H](CN(Cc1ccc(-c2ccccn2)cc1)NC(=O)[C@@H](NC(=O)OC)C(C)(C)C)[C@H](Cc1ccccc1)NC(=O)[C@@H](NC(=O)OC)C(C)(C)C)C(C)C)C(C)C` (stereo in doubt; 5e), the Ratio in series [1] is 4.7; in [5], 364.4; in [11] it was 6; in series [12], 0.13; in [13], 5.3. Besides, the half-life in series [2] was 4.7 h; in series [9], over 500 h; in series [10], 376 h. Moreover, the Cmax in [3] (Sprague-Dawley, 3 ml/kg) amounted to 342 nM. In addition, in [4] (po, 24 h), the time to peak (Tmax) came out at 0.3 h. Also, the figures for the solubility in [6] (setting [15]) and in series [7] (setting [15]) were over 1400 µg/mL and over 2500 µg/mL, respectively. The compound further showed an AUClast in series [8] of 0.262 µM·h.

`COC(=O)N[C@H](C(=O)N[C@@H](Cc1ccccc1)[C@H](CN(Cc1ccc(-c2ccccn2)cc1)NC(=O)[C@@H](NC(=O)OC)C(C)(C)C)OC(=O)OC(OC(=O)C1(N)CC1)C(C)C)C(C)(C)C` (stereo in doubt; 3x): the Ratio in [1] is listed as 1.4; in [11] it was 5.1; in series [12], 2.07; in [13] it was 1.7. Further, the half-life in series [2], in series [9] and in series [10] was over 500 h throughout. Moreover, the Cmax in series [3] (Sprague-Dawley, 3 ml/kg) turned out to be 1260 nM. Moreover, in [4] (Sprague-Dawley, read-out: Tmax), the time of peak concentration (Tmax) was 0.3 h. In addition, the solubility in series [14] is under 1.5 µg/mL; in series [6] (buffer), over 950 µg/mL; in series [7] (setting [15]), over 1200 µg/mL. Also, the AUClast in series [8] was found to be 1.313 µM·h.

In the case of `COC(=O)N[C@H](C(=O)N[C@@H](Cc1ccccc1)[C@H](CN(Cc1ccc(-c2ccccn2)cc1)NC(=O)[C@@H](NC(=O)OC)C(C)(C)C)OC(=O)OC(OC(=O)[C@@H](N)C(C)C)C(C)C)C(C)(C)C` (stereo in doubt; 3r), the Ratio came to 3.4 in [1]; 761.7 in series [5]; 3.6 in [11]; 0 in [12]; 3.6 in [13]. Moreover, the t1/2 in series [2] is 10.6 h. In addition, the values for the solubility in [6] (setting [15]) and in [7] (setting [15]) were over 2500 µg/mL and over 2600 µg/mL, respectively. For the same compound, the half-life in series [9] and in series [10] was over 500 h each time.
